Series [1] is described as follows: Caco-2 cell transport assay (bidirectional). Particulars: human, Caco-2, 2.00 μM; for efflux ratio at 2 h, 2 μM: Caco-2, pH 7.4, Efflux Ratio; for Papp A→B at 2 h, 2 μM: Caco-2, pH 7.4, Mean Papp A to B; for Papp A→B at 2 h, 2 μM / Papp B→A at 2 h, 2 μM: pH 7.40; for Papp B→A at 2 h, 2 μM: Caco-2, pH 7.4, Mean Papp B to A. (In general: Caco-2 cells form a polarised layer with tight junctions and transporters.)

The target of a further series is human GHSR (Homo sapiens (Human), UniProt Q92847). Kind of series: Human GHSR agonist activity, FLIPR calcium fluorescence in human GHSR/CHO stable cell line. Type of series: cell-based. How it is done: This method was used to determine the agonism effect of the compound of the invention on the activity of human GHSR protein expressed in human GHSR/CHO stable cell line.
Preparation of buffer: HBSS (1X):HEPES (1M)=49:1, containing 0.5% BSA.
Cells of human GHSR/CHO stable cell line were inoculated into a 384-well plate, and incubated overnight. Then, the cell plate was removed, and the medium was discarded. 20 uL buffer as slowly added to each well, and then 20 uL 2X Fluo-4 Direct™ No-wash Loading Buffer was added to each well. The cell plate was incubated in an incubator at 37° C. and 5% CO2 for 50 min, and then removed and allowed to stand at room temperature for 10 min. 30 uL buffer was added to each well in the compound plate; and a buffer plate was additionally prepared and 30 uL buffer was added to each well. Test for agonism of compound: An FLIPR instrument and running software were used. 10 uL buffer was transferred to the cell plate and the value of fluorescence signal was read. 10 uL compound was transferred to the cell plate and the value of fluorescence signal was read. An FLIPR program was used to calculate the difference between the maximum value and the minimum value from the 91st signal point to the 230th signal point. The EC50 value of the compound can be calculated by software from fluorescence values corresponding to various concentrations.

In series [2] the test system is Caco-2 cells. Kind of series: Caco-2 cell transport assay (bidirectional). Particulars: Table 3-1, Caco-2, 2.00 μM.
The test system of a further series is growth hormone (GH). Kind of series: In-vivo pharmacodynamic test in rats: plasma GH level by ELISA after oral administration. On the set-up: species or system Sprague-Dawley (SD) rats. Particulars: for GH concentration in rats: male SD rats, oral, 4 mpk in 10% HS15.
Series [3] is described as follows: Metabolism (pharmacokinetic) test in rats, oral gavage.
Series [4] is described as follows: Subacute toxicity test in rats (14 days oral, 14 days recovery). Type of series: in vivo, Sprague-Dawley (SD) rats. As to the method:
Male Sprague-Dawley (SD) rats (180-220 g) were purchased from Liaoning Changsheng Biotechnology Co., Ltd. (Liaoning, China). All animals were kept in a temperature-controlled room (22±2° C.) with a relative humidity of 55±15% and a 12/12-h light/dark period (the light was turned off at 8:00 pm), with 3 animals in each cage. Animals were adapted to the environment for 1 week after arrival, and allowed to free access to indicated feed and sterilized water, and the padding in the animal cage was changed twice a week.
The compound of the present invention was prepared in 10% HS15.
Multiple doses (30 mpk, 100 mpk and 300 mpk) of the compound of the present invention were orally administered to rats. The compound was administered once a day for consecutive 14 days. The rats were weighed twice a week. […] Compound 5 was given by oral gavage for consecutive 14 days and then recovered for 2 weeks.

Series [5] has as its system Caco-2 cells. Particulars: human, Caco-2, 2 h, 2 μM, pH 7.4.
The next series can be described thus: in vitro. Particulars: human; for Papp B→A at 2 h, 2 μM: Caco-2, pH 7.4, Mean Papp B to A.
The mark [6] stands for this setting: time point 0 min (basic sampling before dosing).
The mark [7] stands for this setting: rats, single oral gavage, 1 mg/mL, 3 mL/kg, active ingredient ibutamoren measured in whole blood.
Setting [8] is: oral gavage 30, 100, 300 mpk once a day for 14 days, 2 weeks recovery.

This note sets out measurements from patent US20240190875A1, “SPIROINDOLINE DERIVATIVE, AND PREPARATION METHOD AND MEDICAL USE THEREOF” (CHANGCHUN GENESCIENCE PHARMACEUTICAL CO., LTD., priority 2021, published 2024).

For orientation: efflux ratio means a quotient of directional permeabilities that is used to spot active efflux. Broadly, the Papp A→B is the apparent permeability from the apical to the basolateral side of a cell layer. For orientation: Papp B→A means the apparent permeability from the basolateral to the apical side of a cell layer. For orientation: EC50 means the concentration giving half of the maximal effect. The term Cmax denotes the maximum level reached in the sampled fluid or tissue. One may read the Tmax as the time at which the peak concentration occurs. A word on the AUC(0-inf): it is the area under the concentration-time curve extrapolated to infinity. A lower AUC(0-inf) goes with less exposure. Broadly, the AUC(0-t) is exposure summed from dosing to a finite time, without extrapolation to infinity. Read a low AUC(0-t) as low exposure. As a reminder, the half-life is the time needed for the level to fall by half in the phase considered.

Like-named read-outs stand apart in the source and are kept apart here.

Sequence of human GHSR (Q92847 whole entry): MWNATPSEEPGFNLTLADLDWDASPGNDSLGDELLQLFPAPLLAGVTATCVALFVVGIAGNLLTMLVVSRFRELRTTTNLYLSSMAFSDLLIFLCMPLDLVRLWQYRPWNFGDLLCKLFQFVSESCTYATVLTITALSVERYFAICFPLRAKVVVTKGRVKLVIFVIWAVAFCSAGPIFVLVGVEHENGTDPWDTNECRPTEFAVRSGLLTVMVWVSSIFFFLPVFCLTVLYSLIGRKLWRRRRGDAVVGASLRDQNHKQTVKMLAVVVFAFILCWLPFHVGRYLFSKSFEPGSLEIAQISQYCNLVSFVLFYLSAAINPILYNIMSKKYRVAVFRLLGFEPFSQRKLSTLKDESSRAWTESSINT

`C[C@H]1O[C@@H](O[C@H]2[C@@H](O)C[C@H](O[C@H]3[C@@H](O)C[C@H](O[C@H]4CC[C@@]5(C)[C@H](CC[C@@H]6[C@@H]5C[C@@H](O)[C@]5(C)[C@@H](C7=CC(=O)OC7)CC[C@]65O)C4)O[C@@H]3C)O[C@@H]2C)C[C@H](O)[C@@H]1O` [Digoxin]: in series [1] (Table 3-1), the efflux ratio at 2 h, 2 μM turned out to be 523; the apparent permeability from apical to basolateral (Papp A→B) at 2 h, 2 μM came to 0.0229 ×10⁻⁶ cm/s; the Papp B→A at 2 h, 2 μM was determined as 12 ×10⁻⁶ cm/s. For the same molecule, in series [1] (Table 3-2), the efflux ratio at 2 h, 2 μM came out at 300; the apical-to-basolateral permeability (Papp A→B) at 2 h, 2 μM stood at 0.0476 ×10⁻⁶ cm/s; the Papp B→A at 2 h, 2 μM was 14.3 ×10⁻⁶ cm/s.

`CCC(C)C(=O)OC(C)OC(=O)NC(C)(C)C(=O)N[C@H](COCc1ccccc1)C(=O)N1CCC2(CC1)CN(S(C)(=O)=O)c1ccccc12` (stereo partly drawn) [Compound 12, (4R)-7,7-dimethyl-4-(1-(methylsulfonyl)spiro[indol-3,4′-piperidin]-1′-carbonyl)-6,9-dioxo-1-phenyl-2,10-dioxa-5,8-diazadodecan-11-yl 2-methylbutyrate]: at human GHSR, the EC50 came to 35.9 nM.

For `CCOP(=O)(OCC)OCOC(=O)NC(C)(C)C(=O)N[C@H](COCc1ccccc1)C(=O)N1CCC2(CC1)CN(S(C)(=O)=O)c1ccccc12` [Compound 10, ((Diethoxyphosphoryl)oxy)methyl (R)-(1-((3-(benzoxy)-1-(1-(methylsulfonyl)spiro[indol-3,4′-piperidin]-1′-yl)-1-oxopropan-2-yl)amino)-2-methyl-1-oxopropan-2-yl)carbamate], at human GHSR, the concentration for a half-maximal effect (EC50) was 152 nM.

`CC(OC(=O)NC(C)(C)C(=O)N[C@H](COCc1ccccc1)C(=O)N1CCC2(CC1)CN(S(C)(=O)=O)c1ccccc12)OC(=O)C(C)C` (stereo partly drawn) [Compound 5, (4R)-7,7-dimethyl-4-(1-(methylsulfonyl)spiro[indol-3,4′-piperidin]-1′-carbonyl)-6,9-dioxo-1-phenyl-2,10-dioxa-5,8-diazadodecan-11-yl Isobutyrate]: the “Efflux Ratio” value in the series with Caco-2 cells [2] worked out at 170. Moreover, in the series with Caco-2 cells [2] (2 hrs, pH 7.40), the “Mean Papp A to B” value is 0.0518 10^−6 cm/s and the “Mean Papp B to A” value is on record as 8.80 10^−6 cm/s. The EC50 on human GHSR (human GHSR/CHO stable cell line, Fluo-4 FLIPR) is 14.6 nM. In addition, the “GH level in the circulation of rats (in words)” value in the series with growth hormone (GH) (15 minutes after administration, male rats) is on record as “significantly increased”. The “GH concentration in rats” value with growth hormone (GH) (setting [6]) is given as 12.23 ± 10.44 ng/mL. For the same molecule, in the series on growth hormone (GH) (time point 15 min), the “GH concentration in rats” value amounted to 51.12 ± 33.98 ng/mL. For the same molecule, in the series with growth hormone (GH) (time point 30 min), the “GH concentration in rats” value was found to be 19.07 ± 7.17 ng/mL. Besides, the “GH concentration in rats” value with growth hormone (GH) (time point 60 min) worked out at 11.76 ± 4.14 ng/mL. Moreover, the “Cmax and AUC compared with positive control ibutamoren (in words)” value in series [3] (rats, oral gavage) was “obviously superior”. In series [3] (setting [7]), the AUCINF-obs worked out at 23.31 ± 10.81 ng·h/mL, the AUClast was found to be 21.61 ± 9.52 ng·h/mL, the maximum concentration (Cmax) was 18.50 ± 13.60 ng/mL and the T1/2 was 2.43 ± 0.13 h. In series [3] (setting [7]), the Tmax worked out at 0.44 ± 0.49 h. For the same molecule, the “Subacute toxicity overall finding” value in series [4] (dosage 80 times) is given as “no obvious abnormality”. Besides, in series [4] (setting [8]), the Anatomic findings result is given as “no anatomic abnormality”; the “Food intake and daily behavior” value was “no significant abnormality”. In addition, in series [4] (oral gavage 30, 100, 300 mpk once a day for 14 days, 2 weeks recovery (FIG. 1)), the Weight change result is “no significant difference”.

Turning to `CC(=O)OC(C)OC(=O)NC(C)(C)C(=O)N[C@H](COCc1ccccc1)C(=O)N1CCC2(CC1)CN(S(C)(=O)=O)c1ccccc12` (stereo partly drawn) [Compound 14, (4R)-7,7-dimethyl-4-(1-(methylsulfonyl)spiro[indol-3,4′-piperidin]-1′-carbonyl)-6,9-dioxo-1-phenyl-2,10-dioxa-5,8-diazadodecan-11-yl Acetate], the EC50 on human GHSR was 47.2 nM. In the series with growth hormone (GH) (rat, in vivo), the “Effect on GH level compared with ibutamoren (in words)” value is “significantly better than that of ibutamoren” and the “GH level in the circulation of rats (in words)” value is given as “significantly increased”.

Consider `CC(C)(N)C(=O)N[C@H](COCc1ccccc1)C(=O)N1CCC2(CC1)CN(S(C)(=O)=O)c1ccccc12` [Ibutamoren, reference compound], for which the “Mean Papp B to A” value in the series on Caco-2 cells [5] is on record as 24.1 10^−6 cm/s. In addition, in the series on growth hormone (GH) (setting [6]), the “GH concentration in rats” value is listed as 12.22 ± 9.90 ng/mL. In series [3] (rat, whole blood, po, 3 mg/kg), the AUC(0-inf) was found to be 14.3 ± 11 ng·h/mL, the AUC(0-t) turned out to be 6.97 ± 3.27 ng·h/mL, the maximum concentration (Cmax) stood at 3.49 ± 2.81 ng/mL and the time of peak concentration (Tmax) worked out at 1.06 ± 1.68 h. For the same molecule, the half-life in series [3] (rat, whole blood, po, 3 mg/kg) is 9.61 ± 12.1 h. Besides, in “in vitro”, the Papp B→A at 2 h, 2 μM came out at 19.5 ×10⁻⁶ cm/s.

`CC(=O)/C=C(/C)NC(C)(C)C(=O)N[C@H](COCc1ccccc1)C(=O)N1CCC2(CC1)CN(S(C)(=O)=O)c1ccccc12` [Compound 19, (R,Z)-N-(3-(benzoxy)-1-(1-(methylsulfonyl)spiro[indol-3,4′-piperidin]-1′-yl)-1-oxopropan-2-yl)-2-methyl-2-((4-oxopen-2-en-2-yl)amino)propionamide]: the efflux ratio at 2 h, 2 μM in “in vitro” (Caco-2, pH 7.4, Efflux Ratio) is 189. In the series “in vitro” (Caco-2, pH 7.4, Mean Papp A to B), this molecule showed an apical-to-basolateral permeability (Papp A→B) at 2 h, 2 μM of 0.198 ×10⁻⁶ cm/s. Also, the basolateral-to-apical permeability (Papp B→A) at 2 h, 2 μM in the series “in vitro” was 37.3 ×10⁻⁶ cm/s.

With `CC(OC(=O)NC(C)(C)C(=O)N[C@H](COCc1ccccc1)C(=O)N1CCC2(CC1)CN(S(C)(=O)=O)c1ccccc12)OC(=O)C(C)(C)C` (stereo partly drawn) [Compound 20, (4R)-7,7-dimethyl-4-(1-(methylsulfonyl)spiro[indolin-3,4′-piperidin]-1′-carbonyl)-6,9-dioxo-1-phenyl-2,10-dioxa-5,8-diazadodecan-11-yl Pivalate], the EC50 at human GHSR was 37.7 nM.
